Source: patent publication US7700651B2, “Preparations of phospholipids and pharmaceuticals containing 5-amino salicylic acid for the treatment of inflammatory bowel disease” (The Board of Regents of the University of Texas System, priority 2006, dated 2010)

How the values were obtained:
[1] = test system: mice placed on 3% DSS in the drinking water to induce colitis; experiment: DSS-induced colitis in mice, test formulations given in the diet; type: in vivo, C57BL/6 mice; conditions: 3% DSS for four days
Experimental: Phosal 35 SB, a soy lecithin oil containing approximately 35 wt. % phosphatidylcholine (PC), was placed in glass beaker to which 5ASA (or a 5ASA containing pharmaceutical) was added under moderate heat, about 40° C., and stirring until a 1:1 weight ratio was attained. The resulting oil-based formulation was coated with a pH-sensitive polymer, e.g., MultiSal™, or Eudragrit®-S, to form polymer encapsulated micro-spheres of the 5ASA/PC composition. These encapsulated micro-spheres are formed so that the 5ASA and PC are released only when the drug reaches the distal gut, where the pH is 7 or above and the polymer coating degrades. […]
Groups of C57BL/6 mice were exposed to different diets and their daily food consumption (grams/day) were measured over a four day period of time. […]
Now, the 5ASA:PL formulations can be compared to 5ASA in treating the colitis type disorder in mice. […] The efficacy of the treating compositions were determined by measuring colon tissue weight per length.
Groups of mice were placed on drinking water comprising saline containing 3% DSS for four days to induce a colitis type disorder and then treated with the compositions of this invention. The appearance of blood as indicated by an increased hemoglobin content in the feces was measured to determine the efficacy of 5ASA versus the 5ASA:PL formulations. […]

[2] = test system: rats with colitis induced by 4% dextran sodium sulfate (DSS) in drinking water; experiment: Recovery from DSS-induced colitis in rats, 5ASA 100 mg/kg b.i.d. intragastrically for 6 days; type: in vivo, Sprague Dawley male rats
Experimental: Rats were placed on drinking water containing 4% dextran sodium sulfate (DSS) for 5 days and 20 hours to induce colitis after which they were returned to normal drinking water. The animals were then intragastrically administered twice daily for 6 subsequent days with: (a) saline (DSS control); (b) 5ASA at a dose of 100 mg/kg; (c) a 1:1 wt. ratio of 5ASA and Phosal 35 SB (an oil-based formulation); or (d) a 1:2 wt. ratio of 5ASA and Phospholipon 90G (an aqueous lipidic suspension) at the same dose of 5ASA, 100 mg/kg, b.i.d. The formulations (c) and (d) are phosphatidylcholine (PC) associated 5ASA formulations, where the PC and 5ASA are associated at the molecular level. These treatments are designed to compare the efficacy of 5ASA and two different PC:5ASA formulations.
At 1, 3 and 6 days, rats were euthanized and colonic tissue, blood and fecal matter were collected for biochemical and histological analyses to assess colonic inflammation and GI bleeding. A separate group of rats were not placed on DSS and served as “normal controls.”
Referring now to FIG. 8, changes in hematocrit during the 6 day recovery period were measured from the euthanized rats. Changes in hematocrit levels represent an indirect estimate of anemia and internal (GI) bleeding among the groups over the 6 day recovery period.
Colonic inflammation and injury were assessed by measuring a number of biochemical and histological indices. First, tissue edema were assessed by measuring tissue wet weight/unit length.
Colonic myeloperoxidase (MPO) activity, a biochemical marker of neutrophil infiltration into the tissue, was measured as another marker of inflammation.
Tissue histology was scored (under blinded conditions) for signs of injury and inflammation. To assess inflammation we scored the number of inflammatory cells in the lamina propia of the colonic submucosa using a scoring system from 1 (normal) to 4 (highly inflamed).
To assess colonic mucosal injury, a histological scoring system was used, where: 0=normal mucosa; 1=surface injury; 2=injury extending into the mid glandular region; 3=injury extending into the deep glandular region; and 4=injury extending into the serosal (muscle) layer.

[3] = test system: rats with colitis induced by 4% dextran sodium sulfate (DSS) in drinking water; experiment: Recovery from DSS-induced colitis in rats, 5ASA 50 mg/kg BID intragastrically for 3 days; type: in vivo, Sprague Dawley male rats
Experimental: The following experiments were designed to compare the efficacy of 5ASA versus 5ASA:PC formulations in treating rats that had been subjected to colitis induced by adding 4% dextran sodium sulfate (DSS) to their drinking water for over 5 days (5 day, 20 hours) and then returned to normal drinking water. The rats were then treated with 5ASA, in this experiment at a lower dose (50 mg/kg, BID) than that previously studied, in the absence or presence to a PL component for 3 days post DSS induced colitis.
Thirty two healthy male rats used in the study. […] Group 1 were given drinking water without added DSS. Groups 2-4 received drinking water containing 4% DSS for 6 days. At day 6, Group 2 received 1 mL saline BID intra gastrically. Group 3 received 5ASA (50 mg/Kg) BID intra gastrically. Group 4 received 5ASA (50 mg/Kg):Phosal 35SB:MCT oil (1:1:0.3), referred to heretofore as 5ASA:PC BID intra gastrically, where MCT=Medium Chain Triglyceride.
At day 9, the rats were euthanized and the following were measured: (a) hematocrit, (b) fecal hemoglobin, (c) colon weight/length, (d) colon myeloperoxidase (MPO), (e) colonic surface hydrophobicity and (f) colon histology.
In this study, rats were placed on regular drinking water (Group 1) or water containing 4% DSS and then intragastrically administered: saline (Group 2); 5ASA (Group 3) at a dose of 50 mg/kg BID); or 5ASA:PC (P35SB at 1:1 wt ratio) (Group 4) for 3 days at which time the following changes were seen.

C57BL/6 mice = experiment: Induction of colitis in mice by increasing DSS concentrations in drinking water for 4 days; type: in vivo; conditions: 0% to 4% DSS in drinking water, four days
Description: Groups of four C57BL/6 mice were exposed to differing amount of dextran sodium sulfate (DSS) in their drinking water for a four day period of time. The mice were then euthanized and colon tissue weight per length measurements for each group of mice were made.
Groups of C57BL/6 mice were exposed to differing amount of dextran sodium sulfate (DSS) in their drinking water for a four day period of time. The mice fecal hemoglobin measurements were made at the end of the four day period.

Row | Compound | colonic inflammation as colon tissue weight per length [1] | overall colonic inflammation and tissue injury / recovery from colitis (biochemical and histological markers, conclusions) ([2]; 100 mg/kg b.i.d., 3 to 6 days post-DSS) | number of inflammatory cells in lamina propia of colonic submucosa, score 1 (normal) to 4 (highly inflamed) ([2]; 3 and 6 days, 100 mg/kg b.i.d.) | tissue edema (tissue wet weight/unit length) ([2]; 3 days post-DSS, 100 mg/kg b.i.d., vs saline-treated controls) | colonic myeloperoxidase (MPO) activity ([2]; day 3, 100 mg/kg b.i.d.) | fecal hemoglobin (fecal blood loss) ([2]; first day of the recovery period, 100 mg/kg b.i.d.) | colon MPO activity (DSS-induced inflammation) ([3]; 50 mg/kg BID, 3 days post DSS) | colon weight/length (DSS-induced mucosal edema) ([3]; 50 mg/kg BID, 3 days post DSS) | fecal hemoglobin (DSS-induced GI fecal blood loss) ([3]; 50 mg/kg BID, 3 days post DSS) | overall recovery from DSS-induced colitis and GI bleeding (conclusion) ([3]; 50 mg/kg twice daily intragastrically) | colonic inflammation or edema as colon tissue weight per length (C57BL/6 mice) | fecal hemoglobin (C57BL/6 mice)
1 | Nc1ccc(O)c(C(=O)O)c1 [5ASA, 5-amino salicylic acid] | partial reversal | significantly reduces colonic inflammation and tissue injury | reduced number of inflammatory cells | reduced by 5ASA (non significantly) | reduction | may have had a beneficial effect in reducing fecal blood loss | partially | partially reversed | partially reversed | promotes tissue recovery from DSS-induced colitis and reduces GI bleeding |  | 
2 | dextran sodium sulfate [DSS] |  |  |  |  |  |  |  |  |  |  | 3% DSS was shown to cause the greatest increase | increased fecal hemoglobin with increasing concentration
